In the oligonucleotide strings, read from the 5' end, every base follows the letter of its sugar. An asterisk marks phosphorothioate; unmarked linkages are phosphodiester. Other units and linkages are bracketed, terminal groups are in braces. A string of capitals states the bases alone. e = 2'-O-(2-methoxyethyl) (MOE); [5mC] = 5-methylcytosine; d = 2'-deoxy (DNA)
What was measured:
PEPCK-c = PEPCK-c mRNA expression in HepG2 cells; assay type: cell-based, human; conditions: for PEPCKc mRNA expression: Experiment 2, insulin treated: HepG2 cells transfected with oligomeric compound, 1 nM insulin for four hours, UTC + 1 nM insulin = 100
Experimental: (§1) Approximately 28 hours after transfection, the cells are subjected to serum starvation for a period of 12 to 16 hours, using serum-free growth medium. Following serum starvation, cells are treated with 1 nM insulin (insulin-treated) or are left untreated (basal conditions) for approximately four hours. At the same time, untreated control cells in both plates are treated with 100 nM insulin to determine the maximal insulin response. Following insulin treatment (forty-eight hours after transfection), total RNA is harvested from all samples, and the amount of total RNA from each sample is determined using a Ribogreen assay (Invitrogen Corporation, Carlsbad, Calif.). Real-time PCR is performed on the total RNA samples using primer/probe sets for three insulin responsive genes: insulin-like growth factor binding protein-1 (IGFBP-1), cytosolic PEPCK (PEPCK-C), and follistatin. Gene expression levels obtained by real-time PCR are normalized for total RNA content in the samples.
(§2) Oligomeric compounds of the present invention were tested for their effects on insulin signaling in HepG2 cells. HepG2 cells were plated at 7500 cells/well in collagen coated 96-well plates. The following day, cells were transfected with oligomeric compounds targeting miRNAs using 100 nM oligomeric compound in LIPOFECTIN™ (Invitrogen Corporation, Carlsbad, Calif.) in two 96-well plates. The oligomeric compounds were tested in triplicate on each 96-well plate, except for positive and negative controls, which were measured up to six times per plate. At the end of transfection, the transfection medium was replaced by regular growth medium. Twenty-eight hours post-transfection, the cells were subjected to overnight (sixteen to eighteen hours) serum starvation using serum free growth medium. Forty-four hours post-transfection, the cells in the transfected wells were treated with either no insulin (“basal” Experiment 1, for identification of insulin-mimetic compounds) or with 1 nM insulin (“insulin treated” Experiment 2, for identification of insulin sensitizers) for four hours. At the same time, in both plates, cells in some of the un-transfected control wells are treated with 100 nM insulin to determine maximal insulin response. At the end of the insulin or no-insulin treatment (forty-eight hours post-transfection), total RNA is isolated from both the basal and insulin treated (1 nM) 96-well plates, and the amount of total RNA from each sample is determined using a Ribogreen assay (Molecular Probes, Eugene, Oreg.). Real-time PCR is performed on all the total RNA samples using primer/probe sets for three insulin responsive genes: PEPCK-c, IGFBP-1 and follistatin. Expression levels for each gene are normalized to total RNA, and values+standard deviation are expressed relative to the transfectant only untreated control (UTC) and negative control compounds.
(§3) Protocols for treatment of HepG2 cells and transfection of oligomeric compounds are as described in Example 18. Also as described in Example 18, forty-four hours post-transfection, the cells in the transfected wells were treated with either no insulin (“basal” Experiment 3 (below), for identification of insulin-mimetic compounds) or with 1 nM insulin (“insulin treated” Experiment 4 (below), for identification of insulin sensitizers) for four hours. At the same time, in both plates, cells in some of the un-transfected control wells are treated with 100 nM insulin to determine maximal insulin response. At the end of the insulin or no-insulin treatment (forty-eight hours post-transfection), total RNA is isolated from both the basal and insulin treated (1 nM) 96-well plates, and the amount of total RNA from each sample is determined using a Ribogreen assay (Molecular Probes, Eugene, Oreg.).

HeLa cells = experiment: Cell cycle assay in HeLa cells; assay type: cell-based, human; conditions: HeLa cells, 150 nM oligomeric compound
follistatin = experiment: Follistatin mRNA expression in HepG2 cells; assay type: cell-based, human; conditions: for Follistatin mRNA expression: Experiment 2, insulin treated: HepG2 cells transfected with oligomeric compound, 1 nM insulin for four hours, UTC + 1 nM insulin = 100
Experimental: as §1, §2, §3

IGFBP-1 = IGFBP-1 mRNA expression in HepG2 cells; assay type: cell-based, human; conditions: for IGFBP1 mRNA expression: Experiment 2, insulin treated: HepG2 cells transfected with oligomeric compound, 1 nM insulin for four hours, UTC + 1 nM insulin = 100
Experimental: as §1, §2, §3

[1] = test system: BJ, B16-F10, T47D, T47Dp53 and HeLa cells; experiment: Cell cycle assay (propidium iodide flow cytometry), cell line panel; assay type: cell-based; conditions: 150 nM oligomeric compound, 4.5 μg/ml LIPOFECTIN, after 72 hours, propidium iodide flow cytometry
T47D cells = experiment: Caspase-3 activity assay (apoptosis) in T47D cells; conditions: T47D cells, 48 hours; for Fold Increase over UTC (caspase-3 activity, apoptosis): 200 nM oligomeric compound
HuVECs = experiment: Endothelial tube formation assay in HuVECs; conditions: for % Activity Relative to UTC (tube formation): 75 nM oligomeric compound; for tube formation: 75 nM
[2] = 24 hours, relative to untreated control (UTC = 100)
[3] = 48 hours after treatment, relative to untreated control (UTC=100)
[4] = Experiment 3, basal (no insulin), HepG2 cells, 48 hours post-transfection
[5] = Experiment 4, insulin-sensitization: HepG2 cells treated with 1 nM insulin for four hours, 48 h post-transfection, mRNA by real-time PCR

Substance: 328396 (antisense e[5mC]*eT*eG*eG*eT*dT*dG*dG*dG*dT*dA*dT*dG*dA*dG*eA*e[5mC]*eA*eG*eA) [compound 328396]
- PEPCKc mRNA expression (PEPCK-c): 65
- % cells aneuploid (HeLa cells; [2]): 88%
- % cells in cell cycle phase G1 (HeLa cells; [2]): 94%
- % cells in cell cycle phase G2/M (HeLa cells; [2]): 139%
- % cells in cell cycle phase S (HeLa cells; [2]): 87%
- % cells in cell cycle phase subG1 (HeLa cells; [2]): 97%
- % cells in cell cycle phase: G1 (HeLa cells; [3]): 89%
- % cells in cell cycle phase: G2/M (HeLa cells; [3]): 119%
- % cells in cell cycle phase: S (HeLa cells; [3]): 114%
- % cells in cell cycle phase: aneuploid (HeLa cells; [3]): 129%
- % cells in cell cycle phase: subG1 (HeLa cells; [3]): 88%
- Follistatin mRNA expression (follistatin): 135
- IGFBP1 mRNA expression (IGFBP-1): 128
- G1 (percentage of cells in phase of the cell cycle) [1]: 56.8%
- G2/M (percentage of cells in phase of the cell cycle) [1]: 15%
- S (percentage of cells in phase of the cell cycle) [1]: 28.2%
- SubG1 (percentage of cells in phase of the cell cycle) [1]: 4.6%
- aneuploid (percentage of cells) [1]: 19.8%
- Fold Increase over UTC (caspase-3 activity, apoptosis) (T47D cells; experiment of Table 12): 0.8 fold

Substance: 327932 (antisense eA*eG*eG*e[5mC]*eA*eT*eA*eG*eG*eA*eT*eG*eA*e[5mC]*eA*eA*eA*eG*eG*eG*eA*eA) [compound 327932]
- % Activity Relative to UTC (tube formation) (HuVECs; Table 58): 51.9%

Substance: 327894 (antisense eA*eT*eA*e[5mC]*eA*eT*eA*e[5mC]*eT*eT*e[5mC]*eT*eT*eT*eA*e[5mC]*eA*eT*eT*e[5mC]*e[5mC]*eA) [compound 327894]
- % Activity Relative to UTC (tube formation) (HuVECs; Table 56): 100.0%

Substance: ATCCAATCAGTTCCTGATGCAGTA (chemistry not given here) [ISIS 327966]
- tube formation (HuVECs): suppressed tube formation

Substance: GCTGAGTGTAGGATGTTTACA (anti-miR; chemistry not fully specified) [ISIS 327948]
- tube formation (HuVECs): suppressed tube formation

Substance: 327947 (antisense eT*e[5mC]*eA*eG*eT*eT*eA*eT*e[5mC]*eA*e[5mC]*eA*eG*eT*eA*e[5mC]*eT*eG*eT*eA) [compound 327947]
- % Activity Relative to UTC (tube formation) (HuVECs; Table 58): 81.5%

Substance: 328384 (eT*e[5mC]*eA*e[5mC]*eG*dT*dG*dG*dA*dG*dA*dG*dG*dA*dG*eT*eT*eA*eA*eA; antisense) [compound 328384]
- PEPCK-c (% UTC) (PEPCK-c; [4]): 142 % UTC
- PEPCK-c (% UTC) (PEPCK-c; [5]): 114 % UTC
- Follistatin (% UTC) (follistatin; [4]): 110 % UTC
- Follistatin (% UTC) (follistatin; [5]): 121 % UTC
- IGFBP-1 (% UTC) (IGFBP-1; [4]): 139 % UTC
- IGFBP-1 (% UTC) (IGFBP-1; [5]): 102 % UTC
- Fold Increase over UTC (caspase-3 activity, apoptosis) (T47D cells; experiment of Table 11): 1.0 fold

Substance: 328377 (eT*e[5mC]*eA*e[5mC]*eT*d[5mC]*d[5mC]*dT*dA*dA*dA*dG*dG*dT*dT*e[5mC]*eA*eA*eG*eT; antisense) [compound 328377]
- PEPCKc mRNA expression (PEPCK-c): 182
- Follistatin mRNA expression (follistatin): 159
- IGFBP1 mRNA expression (IGFBP-1): 247
- Fold Increase over UTC (caspase activity) (T47D cells; 200 nM, relative to untreated control): 0.7

Substance: 327875 (antisense eA*e[5mC]*eA*eA*e[5mC]*e[5mC]*eA*eG*e[5mC]*eT*eA*eA*eG*eA*e[5mC]*eA*e[5mC]*eT*eG*e[5mC]*e[5mC]*eA) [compound 327875]
- % Activity Relative to UTC (tube formation) (HuVECs; Table 56): 71.4%

Substance: CCGGCTGCAACACAAGACACGA (anti-miR; chemistry not fully specified) [ISIS 327958]
- tube formation (HuVECs): suppressed tube formation
